Measurements published in patent US9156850B2, “Enediyne compounds, conjugates thereof, and uses and methods therefor” (Bristol-Myers Squibb Company, priority 2012, dated 2015).
Where two headings read alike, the source gives them in different places. Each block holds one compound with its values, some of them ahead of it.

Tests used:
Type in all cases: cell-based
DU4475 (breast) = test: Antiproliferative activity, ATP method, DU4475; settings: Homo sapiens, DU-4475
Experimental: (§1) The antiproliferative activity of compounds of this invention or their conjugates was assayed as follows. Human tumor cell lines were obtained from the American Type Culture Collection (ATCC), P.O. Box 1549, Manassas, Va. 20108, USA, and cultured according to instruction from the ATCC. Cells were seeded at 1.0×10^3 or 1.0×10^4 cells/well in 96-well plates for 3 h for ATP assays or ^3H thymidine assays, respectively. 1:3 serial dilutions of free (unconjugated) compounds or their conjugates were added to the wells. Plates were allowed to incubate for 24 to 72 h. The ^3H thymidine plates were pulsed with 1.0 μCi of ^3H-thymidine per well for the last 24 hours of the total incubation period, harvested, and read on a Top Count Scintillation Counter (Packard Instruments, Meriden, Conn.). ATP levels in the ATP plates were measured using the CELLTITER-GLO® Luminescent Cell Viability kit following the manufacturer's manual and read on a GLOMAX® 20/20 luminometer (both from Promega, Madison, Wis., USA). The EC50 values—the concentration at which an agent inhibits or reduces cell proliferation by 50%—were determined using PRISM™ software, version 4.0 (GraphPad Software, La Jolla, Calif., USA).
(§2) The assay method was the ATP method. The cancer cell lines tested against were A2780 (ovarian), A549 (lung), CCRF-CEM (acute lymphoblastic leukemia), COLO205 (colon), DU4475 (breast), H2087 (lung, non-small cell), H661 (lung, large cell), HCT116 (colon), LNCaP (prostate), LS174T (colon), MDA MB468 (breast), MDA MB231 (breast), and SET2 (leukemia). The antiproliferative effects are reported as IC50's, i.e., the concentration of toxin that produces a 50% inhibitory effect.

[1] = test system: H2087 (lung, non-small cell); test: Antiproliferative activity, ATP method, H2087; settings: Homo sapiens, NCI-H2087
Experimental: as §1, §2

LS174T (colon) = test: Antiproliferative activity, ATP method, LS174T; settings: Homo sapiens
Experimental: as §1, §2

H661 (lung, large cell) = test: Antiproliferative activity, ATP method, H661; settings: Homo sapiens, NCI-H661
Experimental: as §1, §2

SET2 (leukemia) = test: Antiproliferative activity, ATP method, SET2; settings: Homo sapiens, SET-2
Experimental: as §1, §2

[2] = test system: doxorubicin-resistant ovarian cancer cell line (Adr); test: Antiproliferative activity, ATP assay, Adr; settings: Homo sapiens
Experimental: as §1
FIG. 11b is an analogous plot of antiproliferative activity against a doxorubicin-resistant ovarian cancer cell line (Adr), also using the ATP assay and a 72 h incubation period.

A549 (lung) = test: Antiproliferative activity, ATP method, A549; settings: Homo sapiens
COLO205 (colon) = test: Antiproliferative activity, ATP method, COLO205; settings: Homo sapiens, COLO 205
Experimental: as §1, §2

[3] = test system: CCRF-CEM (acute lymphoblastic leukemia); test: Antiproliferative activity, ATP method, CCRF-CEM; settings: Homo sapiens
Experimental: as §1, §2

HCT116 (colon) = test: Antiproliferative activity, ATP method, HCT116; settings: Homo sapiens, HCT-116
Experimental: as §1, §2

A2780 (ovarian) = test: Antiproliferative activity, ATP method, A2780; settings: Homo sapiens
Experimental: as §1, §2

LNCaP (prostate) = test: Antiproliferative activity, ATP method, LNCaP; settings: Homo sapiens
Experimental: as §1, §2

MDA MB231 (breast) = test: Antiproliferative activity, ATP method, MDA MB231; settings: Homo sapiens, MDA-MB-231
Experimental: as §1, §2

MDA MB468 (breast) = test: Antiproliferative activity, ATP method, MDA MB468; settings: Homo sapiens, MDA-MB-468
Experimental: as §1, §2

HL-60 leukemia cells = test: Antiproliferative activity, ATP assay, HL-60; settings: Homo sapiens
Experimental: as §1
FIG. 11a is a plot of the antiproliferative activity of compound (IIa) against HL-60 leukemia cells, as measured by the ATP assay using a 72 h incubation period, compared against three reference compounds: doxorubicin (adriamycin), uncialamycin, and Compound A, which is a DNA alkylating agent having the following structure: […]

H226 lung cancer cells = test: Antiproliferative activity, ATP assay, H226; settings: Homo sapiens
Experimental: as §1
FIG. 12b is a similar antiproliferative plot, but against H226 lung cancer cells. The ATP assay was used, with a 72 h incubation period.
FIG. 13c is another plot of the antiproliferative activity of conjugates 2H5-(IVf) and 6A4-(IVf) against H226 cells, but measured using the ATP assay, with a 72 h incubation period.

786-O renal cancer cells = test: Antiproliferative activity, ATP assay, 786-O; settings: Homo sapiens
Experimental: as §1
The ATP assay was used, with a 72 h incubation period.

[4] = DU4475 cell line, ATP method, read-out: IC50
[5] = H2087 cell line, ATP method, read-out: IC50
[6] = LS174T cell line, ATP method, read-out: IC50
[7] = H661 cell line, ATP method, read-out: IC50
[8] = SET2 cell line, ATP method, read-out: IC50
[9] = Adr cells (doxorubicin-resistant ovarian), ATP assay, 72 h incubation, read-out: EC50
[10] = A549 cell line, ATP method, read-out: IC50
[11] = COLO205 cell line, ATP method, read-out: IC50
[12] = CCRF-CEM cell line, ATP method, read-out: IC50
[13] = HCT116 cell line, ATP method, read-out: IC50
[14] = A2790 cell line, ATP method, read-out: IC50
[15] = LNCaP cell line, ATP method, read-out: IC50
[16] = MCD MB231 cell line, ATP method, read-out: IC50
[17] = MDA MB468 cell line, ATP method, read-out: IC50
[18] = HL-60 leukemia cells, ATP assay, 72 h incubation, read-out: EC50

SMILES: Nc1ccc(C(=O)Nc2ccc3[nH]c(C(=O)N4C[C@@H](CCl)c5c4cc(O)c4ccccc54)cc3c2)cc1 [Compound A]
IC50 (DU4475 (breast); [4]): 0.001 nM
IC50 [1, 5]: 0.019 nM
IC50 (LS174T (colon); [6]): 0.015 nM
IC50 (H661 (lung, large cell); [7]): 0.02 nM
IC50 (SET2 (leukemia); [8]): 0.002 nM
EC50 [2, 9]: 0.143 nM
IC50 (A549 (lung); [10]): 0.04 nM
IC50 (COLO205 (colon); [11]): 0.019 nM
IC50 [3, 12]: 0.019 nM
IC50 (HCT116 (colon); [13]): 0.002 nM
IC50 (A2780 (ovarian); [14]): 0.004 nM
IC50 (LNCaP (prostate); [15]): 0.01 nM
IC50 (MDA MB231 (breast); [16]): 0.068 nM
IC50 (MDA MB468 (breast); [17]): 0.009 nM
EC50 (HL-60 leukemia cells; [18]): 0.00187 nM

SMILES: C[C@@H](O)[C@@]12O[C@]13c1cc(O)c4c(c1N[C@H]2C#C/C=C\C#C[C@H]3O)C(=O)c1ccc(NC(=O)c2ccc(N)cc2)cc1C4=O [Compound (IId)]
EC50 (H226 lung cancer cells; NCI-H226, 72 h): 0.873 nM
EC50 (786-O renal cancer cells; 786-0, 72 h): 0.058 nM

SMILES: CNc1ccc2c(c1)C(=O)c1c(O)cc3c(c1C2=O)N[C@H]1C#C/C=C\C#C[C@@H](O)[C@@]32O[C@@]12[C@@H](C)O [Compound (IIe), 8-methylaminouncialamycin]
EC50 (H226 lung cancer cells; NCI-H226, 72 h): 17.4 nM
EC50 (786-O renal cancer cells; 786-0, 72 h): 1.72 nM

SMILES: C[C@@H](O)[C@@]12O[C@]13c1cc(O)c4c(c1N[C@H]2C#C/C=C\C#C[C@H]3O)C(=O)c1ccccc1C4=O [Uncialamycin, uncialamycin]
EC50 ([2]; 72 h): 0.085 nM
EC50 (HL-60 leukemia cells; HL-60, 72 h): 0.012 nM

SMILES: C[C@@H](O)[C@@]12O[C@]13c1cc(O)c4c(c1N[C@H]2C#C/C=C\C#C[C@H]3O)C(=O)c1ccc(NCCN)cc1C4=O [Compound (IIc)]
EC50 (H226 lung cancer cells; NCI-H226, 72 h): 0.986 nM
EC50 (786-O renal cancer cells; 786-0, 72 h): 1.27 nM

IC50 [1, 5]: 54.4 nM
EC50 (H226 lung cancer cells; NCI-H226, H226 cells, ATP assay, 72 h incubation, free compounds, read-out: EC50): 141 nM
IC50 (H661 (lung, large cell); [7]): 26.6 nM
IC50 (SET2 (leukemia); [8]): 67.6 nM
EC50 [2, 9]: 3850 nM
IC50 (A549 (lung); [10]): 138 nM
IC50 (COLO205 (colon); [11]): 19.7 nM
IC50 [3, 12]: 19.4 nM
IC50 (HCT116 (colon); [13]): 23.4 nM
IC50 (A2780 (ovarian); [14]): 11.2 nM
IC50 (LNCaP (prostate); [15]): 5.5 nM
EC50 (786-O renal cancer cells; 786-0, 786-O cells, ATP assay, 72 h incubation, read-out: EC50): 92.3 nM
EC50 (HL-60 leukemia cells; [18]): 5.98 nM
SMILES: COc1cccc2c1C(=O)c1c(O)c3c(c(O)c1C2=O)C[C@@](O)(C(=O)CO)C[C@@H]3O[C@H]1C[C@H](N)[C@H](O)[C@H](C)O1 [Doxorubicin, doxorubicin]
IC50 (DU4475 (breast); [4]): 2.9 nM
IC50 (LS174T (colon); [6]): 11.1 nM
IC50 (MDA MB231 (breast); [16]): 90.5 nM
IC50 (MDA MB468 (breast); [17]): 29 nM

SMILES: C[C@@H](O)[C@@]12O[C@]13c1cc(O)c4c(c1N[C@H]2C#C/C=C\C#C[C@H]3O)C(=O)c1ccc(N)cc1C4=O [Compound (IIa), 8-aminouncialamycin]
IC50 (DU4475 (breast)): 0.002 nM
IC50 [1]: 0.037 nM
EC50 (H226 lung cancer cells; NCI-H226, 72 h): 1 nM
IC50 (LS174T (colon); LS174T): 0.002 nM
IC50 (H661 (lung, large cell)): 0.053 nM
IC50 (SET2 (leukemia)): 0.008 nM
EC50 ([2]; 72 h): 0.0612 nM
IC50 (A549 (lung); A549): 0.076 nM
IC50 (COLO205 (colon)): 0.01 nM
IC50 ([3]; CCRF-CEM): 0.014 nM
IC50 (HCT116 (colon)): 0.007 nM
IC50 (A2780 (ovarian)): 0.003 nM
IC50 (LNCaP (prostate); LNCaP): 0.001 nM
IC50 (MDA MB231 (breast)): 0.085 nM
EC50 (786-O renal cancer cells; 786-0, 72 h): 0.116 nM
IC50 (MDA MB468 (breast)): 0.012 nM
EC50 (HL-60 leukemia cells; HL-60, 72 h): 0.00404 nM
